Holding throughout (test): transactivation assay (GAL4 chimeric receptor, luciferase) in CV-1 cells
Type in all cases: cell-based

In one assay the target is T1, Mouse PPAR-α (Mus musculus, UniProt P23204).
T1 construct: expressed in transfected cells; host or cells: CV-1 (CCL-70, ATCC)
T1 sequence (P23204 239-466 limits assumed): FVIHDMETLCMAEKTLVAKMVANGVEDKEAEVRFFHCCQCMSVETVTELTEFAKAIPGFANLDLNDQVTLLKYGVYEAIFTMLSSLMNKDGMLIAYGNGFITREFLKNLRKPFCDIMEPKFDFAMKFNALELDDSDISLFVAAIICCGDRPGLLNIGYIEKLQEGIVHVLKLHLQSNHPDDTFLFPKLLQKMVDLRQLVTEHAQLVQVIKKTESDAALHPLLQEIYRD
To be noted: for Emax: CV-1, Relative Response % to maximum effects of the positive control drug, read-out: Max % Mouse PPAR-α; for pEC50: CV-1 cells, GAL4 chimeric receptor, 24 hours. The protocol: (§1) Following induction of transient intracellular expression of PPAR-α and -γ, an ability of the inventive compounds to induce transactivation of PPARs via activation of each PPAR was evaluated as an efficacy of the compound (transactivation assay).
(§2) For this assay, the African green monkey kidney cell line CV-1 (CCL-70, ATCC) was used as a test cell line, and PPAR-α and -γ were murine- and human-derived PPARs. Samples used were compounds prepared in Examples 19, 21, 23, 25, 26, 27, 31, 33, 34, 36, 38, 40, 42, 43 and 50. As a positive control drug, 3-4-[2-(2-phenyl-4-methyl-1,3-oxazole)ethyloxy]phenyl-(2S)-[(1-methyl-3-oxo-3-phenyl)propenyl]aminopropionic acid was used that is a PPAR-α or -γ agonist which was once under development and whose clinical trials and studies were suspended at phase III. A chimeric receptor was adopted to circumvent the probable interference due to endogenous receptor activation (Jian-Shen Q. et al., Mol Cell Biol (1995) 15(3):1817-1825). The chimeric receptor was constructed as a fusion of a PPAR-α or -γ ligand-binding domain with a DNA-binding domain of GAL4 which is a yeast transactivator.
(§3) The CV-1 cells were transiently transfected with each of chimeric receptor-expressing DNA constructs and each of DNA constructs comprising 5 copies of the GAL4 DNA-binding domain and capable of inducing expression of firefly luciferase or Renilla luciferase using a Lipofectamine Plus reagent (Invitrogen, USA). After transfection for 3 hours, the culture media were replaced with DMEM containing the above samples and 10% fetal bovine serum. 24 hours later, the firefly luciferase activity and Renilla luciferase activity were continuously assayed while adding an equal amount of a dual luciferase assay reagent (Promega, USA) to the cell-containing media. The transfection efficiency was normalized against Renilla luciferase activity (Motomura W. et al., Int J Cancer (2004) 108(1):41-6). The PPAR-α and -γ activity was determined by calculating Relative Response % to maximum effects of the positive control drug, and conducting multiple dose evaluation of the inventive compounds to calculate EC50, which is the concentration of a drug which produces 50% activation relative to maximum effects of the inventive compounds, by nonlinear regression analysis.

The target in the next assay is T2, Human PPAR-α (Homo sapiens, UniProt Q07869).
T2 construct: expressed in transfected cells; host or cells: CV-1 (CCL-70, ATCC)
T2 sequence (Q07869 239-466 limits assumed): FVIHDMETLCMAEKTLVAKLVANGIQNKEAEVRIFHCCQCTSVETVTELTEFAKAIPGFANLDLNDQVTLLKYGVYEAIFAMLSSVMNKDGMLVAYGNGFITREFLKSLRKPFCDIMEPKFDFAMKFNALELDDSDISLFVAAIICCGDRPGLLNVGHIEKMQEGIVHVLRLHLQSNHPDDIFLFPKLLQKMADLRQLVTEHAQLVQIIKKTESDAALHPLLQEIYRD
To be noted: for Emax: CV-1, Relative Response % to maximum effects of the positive control drug, read-out: Max % Human PPAR-α; for pEC50: CV-1 cells, GAL4 chimeric receptor, 24 hours. The protocol:
as §1, §2, §3

Another assay deals with T3, Mouse PPAR-γ (Mus musculus, UniProt P37238).
T3 construct: expressed in transfected cells; host or cells: CV-1 (CCL-70, ATCC)
T3 sequence (P37238 238-503 limits assumed): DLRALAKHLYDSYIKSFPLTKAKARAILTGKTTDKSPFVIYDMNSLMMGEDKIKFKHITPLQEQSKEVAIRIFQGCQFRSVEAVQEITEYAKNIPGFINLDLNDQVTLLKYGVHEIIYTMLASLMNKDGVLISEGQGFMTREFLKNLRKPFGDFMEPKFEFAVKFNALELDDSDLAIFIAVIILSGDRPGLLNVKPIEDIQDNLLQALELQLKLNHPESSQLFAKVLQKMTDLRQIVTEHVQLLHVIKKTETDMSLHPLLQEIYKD
The conditions noted are these: for Emax: CV-1, Relative Response % to maximum effects of the positive control drug, read-out: Max % Mouse PPAR-γ; for pEC50: CV-1 cells, GAL4 chimeric receptor, 24 hours. The method, then: as §1, §2, §3

The next assay concerns the target T4, Human PPAR-γ (Homo sapiens, UniProt P37231).
T4 construct: expressed in transfected cells; host or cells: CV-1 (CCL-70, ATCC)
T4 sequence (P37231 238-503 limits assumed): T3 sequence (P37238 238-503 limits assumed) with N93S, I98V, N146S, V226L, H245Q
To be noted: for Emax: CV-1, Relative Response % to maximum effects of the positive control drug, read-out: Max % Human PPAR-γ; for pEC50: CV-1 cells, GAL4 chimeric receptor, 24 hours. The protocol: as §1, §2, §3

What is called pEC50 is −log10 of the EC50, conventionally taken in molar units. High values mean a small EC50, low ones a large EC50.

Numbering of substitutions follows the chain as printed. pEC50: −log10 of the molar value.

On to `CCO[C@@H](Cc1ccc(OCc2sc(-c3ccc(C(=O)N4CCOCC4)cc3)cc2C)cc1)C(=O)O` [Example 17, (S)-2-ethoxy-3-(4-((3-methyl-5-(4-(morpholino-4-carbonyl)phenyl)thiophen-2-yl)methoxy)phenyl)propionic acid], for which the Emax on Mouse PPAR-α is 11%; at Human PPAR-α, 12%; on Mouse PPAR-γ, 117%; on Human PPAR-γ, 47%. The pEC50 was 5.49 on Human PPAR-α, 4.84 at Mouse PPAR-γ and 5.90 on Human PPAR-γ.
Consider `CCO[C@@H](Cc1ccc(OCc2sc(-c3ccc(C4=NCCCO4)cc3)cc2C)cc1)C(=O)O` [Example 19, (S)-3-(4-((5-(4-(5,6-dihydro-4H-1,3-oxazin-2-yl)phenyl)-3-methylthiophen-2-yl)methoxy)phenyl)-2-ethoxypropionic acid], for which the Emax at Mouse PPAR-α was determined as 19%; on Human PPAR-α it was 44%; on Mouse PPAR-γ it was 43%; on Human PPAR-γ, 43%. Moreover, the pEC50 on Mouse PPAR-α was 5.17; on Human PPAR-α, 5.18; on Mouse PPAR-γ, 6.55; at Human PPAR-γ, 7.35.
For `CCO[C@@H](Cc1ccc(OCc2sc(-c3ccc(C4=Nc5ccccc5OC4)cc3)cc2C)cc1)C(=O)O` [Example 23, (S)-3-(4-((5-(4-(2H-benzo[b][1,4]oxazin-3-yl)phenyl)-3-methylthiophen-2-yl)methoxy)phenyl)-2-ethoxypropionic acid], the Emax at Mouse PPAR-α came out at 43%; at Human PPAR-α, 44%; on Mouse PPAR-γ, 67%; on Human PPAR-γ it was 83%. In addition, the pEC50 at Mouse PPAR-α was 6.98; at Human PPAR-α it was 5.70; on Mouse PPAR-γ it was 6.78; at Human PPAR-γ, 7.19.
Take `CCO[C@@H](Cc1ccc(OCc2sc(-c3ccc(-c4csnn4)cc3)cc2C)cc1)C(=O)O` [Example 24, (S)-3-(4-((5-(4-(1,2,3-thiadiazol-4-yl)phenyl)-3-methylthiophen-2-yl)methoxy)phenyl)-2-ethoxypropionic acid]: the Emax at Mouse PPAR-α was found to be 23%; on Human PPAR-α, 19%; at Mouse PPAR-γ, 38%; on Human PPAR-γ, 45%. Also, the pEC50 on Mouse PPAR-α is 5.31; on Human PPAR-α, 5.85; at Mouse PPAR-γ, 7.08; at Human PPAR-γ, 7.49.
Regarding `CCO[C@@H](Cc1ccc(OCc2sc(-c3ccc(-c4noc(C)n4)cc3)cc2C)cc1)C(=O)O` [Example 25, (S)-2-ethoxy-3-(4-((3-methyl-5-(4-(5-methyl-1,2,4-oxadiazol-3-yl)phenyl)thiophen-2-yl)methoxy)phenyl)propionic acid], the Emax on Mouse PPAR-α turned out to be 35%; at Human PPAR-α, 63%; at Mouse PPAR-γ, 48%; at Human PPAR-γ, 48%. Moreover, the pEC50 on Mouse PPAR-α is 6.35; on Human PPAR-α, 5.28; on Mouse PPAR-γ it was 6.53; on Human PPAR-γ, 7.02.
As for `CCO[C@@H](Cc1ccc(OCc2sc(-c3ccc(-c4nnn(C)n4)cc3)cc2C)cc1)C(=O)O` [Example 29, (S)-2-ethoxy-3-(4-((3-methyl-5-(4-(2-methyl-2H-tetrazol-5-yl)phenyl)thiophen-2-yl)methoxy)phenyl)propionic acid], the Emax is 31% on Mouse PPAR-α, 52% on Human PPAR-α, 48% at Mouse PPAR-γ and 66% on Human PPAR-γ. Moreover, the pEC50 was 6.42 on Mouse PPAR-α, 5.91 at Human PPAR-α, 6.93 at Mouse PPAR-γ and 7.31 on Human PPAR-γ.
`CCO[C@@H](Cc1ccc(OCc2sc(-c3ccc(-c4nnn(C(C)C)n4)cc3)cc2C)cc1)C(=O)O` [Example 31, (S)-2-ethoxy-3-(4-((5-(4-(2-isopropyl-2H-tetrazol-5-yl)phenyl)-3-methylthiophen-2-yl)methoxy)phenyl)propionic acid]: the Emax on Mouse PPAR-α is 10%; at Human PPAR-α, 21%; on Mouse PPAR-γ, 23%; at Human PPAR-γ, 25%. In addition, the pEC50 is 5.51 on Mouse PPAR-α, 6.32 at Human PPAR-α, 7.24 on Mouse PPAR-γ and 7.00 at Human PPAR-γ.
Turning to `CCO[C@@H](Cc1ccc(OCc2sc(-c3ccc(-c4nc(C)c(C)o4)cc3)cc2C)cc1)C(=O)O` [Example 34, (S)-3-(4-((5-(4-(4,5-dimethyloxazol-2-yl)phenyl)-3-methylthiophen-2-yl)methoxy)phenyl)-2-ethoxypropionic acid], the Emax at Mouse PPAR-α worked out at 31%; on Human PPAR-α it was 31%; at Mouse PPAR-γ it was 81%; at Human PPAR-γ it was 75%. Further, the pEC50 was 5.46 on Mouse PPAR-α, 6.32 on Human PPAR-α, 6.75 on Mouse PPAR-γ and 7.74 at Human PPAR-γ.
Take `CCO[C@@H](Cc1ccc(OCc2sc(-c3ccc(-c4cc(C(=O)NC)no4)cc3)cc2C)cc1)C(=O)O` [Example 38, (S)-2-ethoxy-3-(4-((3-methyl-5-(4-(3-(methylcarbamoyl)isoxazol-5-yl)phenyl)thiophen-2-yl)methoxy)phenyl)propionic acid]: the Emax on Mouse PPAR-α turned out to be 49%; at Human PPAR-α it was 51%; at Mouse PPAR-γ it was 81%; at Human PPAR-γ it was 68%. Also, the pEC50 at Mouse PPAR-α is 5.24; on Human PPAR-α, 5.29; at Mouse PPAR-γ, 6.74; on Human PPAR-γ, 7.00.
For the molecule `CCO[C@@H](Cc1ccc(OCc2sc(-c3ccc(-c4cc(COC)no4)cc3)cc2C)cc1)C(=O)O` [Example 40, (S)-2-ethoxy-3-(4-((5-(4-(3-(methoxymethyl)isoxazol-5-yl)phenyl)-3-methylthiophen-2-yl)methoxy)phenyl)propionic acid], the Emax was 5% on Mouse PPAR-α, 7% at Human PPAR-α, 30% on Mouse PPAR-γ and 31% on Human PPAR-γ. Also, the pEC50 was 6.96 at Mouse PPAR-γ and 7.72 on Human PPAR-γ.
With `CCO[C@@H](Cc1ccc(OCc2sc(-c3ccc(-c4cc(C)no4)cc3)nc2C)cc1)C(=O)O` [Example 47, (S)-2-ethoxy-3-(4-((4-methyl-2-(4-(3-methylisoxazol-5-yl)phenyl)thiazol-5-yl)methoxy)phenyl)propionic acid], the Emax at Mouse PPAR-α turned out to be 71%; on Human PPAR-α it was 60%; at Mouse PPAR-γ it was 70%; on Human PPAR-γ, 50%. The pEC50 is 6.25 at Mouse PPAR-α, 5.85 on Human PPAR-α, 6.68 on Mouse PPAR-γ and 7.09 at Human PPAR-γ.

The values above are taken from patent US20100063041A1, “NOVEL PHENYLPROPIONIC ACID DERIVATIVES AS PEROXISOME PROLIFERATOR-ACTIVATED GAMMA RECEPTOR MODULATORS, METHOD OF THE SAME, AND PHARMACEUTICAL COMPOSITION COMPRISING THE SAME” (priority 2007, published 2010).
